Measured values: patent US8138168B1 (Takeda Pharmaceutical Company Limited, priority 2007, dated 2012)

These molecules were tested against T1, Recombinant human renin (Homo sapiens, UniProt P00797) (assay: In vitro enzymatic activity assay of renin inhibitors (fluorogenic peptide substrate)). Conditions: not given.
T1 construct: isolate the active form (residues 67-406); made in house; host or cells: FreeStyle 293-F cells (transient expression of pcDNA3.1(+)/hREN)
T1 sequence (P00797 67-406): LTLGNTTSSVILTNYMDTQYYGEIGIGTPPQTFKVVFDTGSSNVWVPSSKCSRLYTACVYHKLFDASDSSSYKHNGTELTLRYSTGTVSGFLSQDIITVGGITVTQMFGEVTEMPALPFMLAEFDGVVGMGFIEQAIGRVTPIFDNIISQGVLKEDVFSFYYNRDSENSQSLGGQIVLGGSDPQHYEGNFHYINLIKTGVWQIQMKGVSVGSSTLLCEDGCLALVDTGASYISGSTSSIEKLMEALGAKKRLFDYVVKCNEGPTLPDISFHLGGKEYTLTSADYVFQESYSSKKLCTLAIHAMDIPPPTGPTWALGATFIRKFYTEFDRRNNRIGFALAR
Type: biochemical
In short: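 Enzyme: recombinant human renin, 3 nM final, 10 min compound pre-incubation at 37 °C; buffer 50 mM Hepes pH 7.4 with 0.1 mg/mL BSA or extra 2% BSA; 5% DMSO.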

| SMILES | IC50 [µM] |
| --- | --- |
| COCCCn1c([C@@H]2CCCN(C(=O)[C@@H]3CN(C(=O)Oc4ccc(Cl)cc4)C[C@H]3N)C2)nc2ccccc21 [Compound 407, (3S,4R)-4-chlorophenyl 3-amino-4-((R)-3-(1-(3-methoxypropyl)-1H-benzo[d]imidazol-2-yl)piperidine-1-carbonyl)pyrrolidine-1-carboxylate] | > 1 |
| COCCCn1c([C@@H]2CCCN(C(=O)[C@@H]3CN(C(=O)Oc4cccc(C(F)(F)F)c4)C[C@H]3N)C2)nc2ccccc21 [Compound 408, (3S,4R)-3-(trifluoromethyl)phenyl 3-amino-4-((R)-3-(1-(3-methoxypropyl)-1H-benzo[d]imidazol-2-yl)piperidine-1-carbonyl)pyrrolidine-1-carboxylate] | > 1 |

Same assay, conditions: read-out: IC50 of Exemplified Compounds Against Renin

| SMILES | IC50 [µM] |
| --- | --- |
| COCCCn1c([C@@H]2CCCN(C(=O)[C@@H]3CN(C(=O)C(C)C)C[C@H]3N)C2)nc2ccccc21 [Compound 396, 1-((3S,4R)-3-amino-4-((R)-3-(1-(3-methoxypropyl)-1H-benzo[d]imidazol-2-yl)piperidine-1-carbonyl)pyrrolidin-1-yl)-2-methylpropan-1-one] | > 1 |
| COCCCn1c([C@@H]2CCCN(C(=O)[C@@H]3CN(C(=O)CC4CCCCC4)C[C@H]3N)C2)nc2ccccc21 [Compound 397, l-((3S,4R)-3-amino-4-((R)-3-(1-(3-methoxypropyl)-1H-benzo[d]imidazol-2-yl)piperidine-1-carbonyl)pyrrolidin-1-yl)-2-cyclohexylethanone] | > 1 |
| COCCCn1c([C@@H]2CCCN(C(=O)[C@@H]3CN(C(=O)c4ccccc4Cl)C[C@H]3N)C2)nc2ccccc21 [Compound 398, ((3R,4S)-4-amino-1-(2-chlorobenzoyl)pyrrolidin-3-yl)((R)-3-(1-(3-methoxypropyl)-1H-benzo[d]imidazol-2-yl)piperidin-1-yl)methanone] | > 1 |
| COCCCn1c([C@@H]2CCCN(C(=O)[C@@H]3CN(C(=O)NC4CCCC4)C[C@H]3N)C2)nc2ccccc21 [Compound 399, (3S,4R)-3-amino-N-cyclopentyl-4-((R)-3-(1-(3-methoxypropyl)-1H-benzo[d]imidazol-2-yl)piperidine-1-carbonyl)pyrrolidine-1-carboxamide] | > 1 |
| COCCCn1c([C@@H]2CCCN(C(=O)[C@@H]3CN(C(=O)Nc4ccccc4OC)C[C@H]3N)C2)nc2ccccc21 [Compound 400, (3S,4R)-3-amino-N-(2-methoxyphenyl)-4-((R)-3-(1-(3-methoxypropyl)-1H-benzo[d]imidazol-2-yl)piperidine-1-carbonyl)pyrrolidine-1-carboxamide] | > 1 |
| COCCCn1c([C@@H]2CCCN(C(=O)[C@@H]3CN(S(=O)(=O)c4cc(Br)ccc4OC)C[C@H]3N)C2)nc2ccccc21 [Compound 401, ((3R,4S)-4-amino-1-(5-bromo-2-methoxyphenylsulfonyl)pyrrolidin-3-yl)((R)-3-(1-(3-methoxypropyl)-1H-benzo[d]imidazol-2-yl)piperidin-l-yl)methanone] | > 1 |
| COCCCn1c([C@@H]2CCCN(C(=O)[C@@H]3CN(S(=O)(=O)c4ccccc4C(F)(F)F)C[C@H]3N)C2)nc2ccccc21 [Compound 402, ((3R,4S)-4-amino-1-(2-(trifluoromethyl)phenylsulfonyl)pyrrolidin-3-yl)((R)-3-(1-(3-methoxypropyl)-1H-benzo[d]imidazol-2-yl)piperidin-1-yl)methanone] | > 1 |
| COCCCn1c([C@@H]2CCCN(C(=O)[C@@H]3CN(S(=O)(=O)c4cc(C)ccc4C#N)C[C@H]3N)C2)nc2ccccc21 [Compound 403, 2-((3S,4R)-3-amino-4-((R)-3-(1-(3-methoxypropyl)-1H-benzo[d]imidazol-2-yl)piperidine-1-carbonyl)pyrrolidin-1-ylsulfonyl)-4-methylbenzonitrile] | > 1 |
| COCCCn1c([C@@H]2CCCN(C(=O)[C@@H]3CN(C(=O)Nc4ccccc4)C[C@H]3N)C2)nc2ccccc21 [Compound 404, (3S,4R)-3-amino-4-((R)-3-(1-(3-methoxypropyl)-1H-benzo[d]imidazol-2-yl)piperidine-1-carbonyl)-N-phenylpyrrolidine-1-carboxamide] | > 1 |
| COCCCn1c([C@@H]2CCCN(C(=O)[C@@H]3CN(C(=O)C4CCCCC4)C[C@H]3N)C2)nc2ccccc21 [Compound 405, ((3R,4S)-4-amino-1-(cyclohexanecarbonyl)pyrrolidin-3-yl)((R)-3-(1-(3-methoxypropyl)-1H-benzo[d]imidazol-2-yl)piperidin-1-yl)methanone] | > 1 |
| COCCCn1c([C@@H]2CCCN(C(=O)[C@@H]3CN(C(=O)c4cc5ccccc5o4)C[C@H]3N)C2)nc2ccccc21 [Compound 406, ((3R,4S)-4-amino-1-(benzofuran-2-carbonyl)pyrrolidin-3-yl)((R)-3-(1-(3-methoxypropyl)-1H-benzo[d]imidazol-2-yl)piperidin-1-yl)methanone] | > 1 |
| COCCCn1c([C@@H]2CCCN(C(=O)[C@@H]3CN(S(=O)(=O)c4cccc(-c5noc(C)n5)c4)C[C@H]3N)C2)nc2ccccc21 [Compound 409, ((3R,4S)-4-amino-1-(3-(5-methyl-1,2,4-oxadiazol-3-yl)phenylsulfonyl)pyrrolidin-3-yl)((R)-3-(1-(3-methoxypropyl)-1H-benzo[d]imidazol-2-yl)piperidin-1-yl)methanone] | > 1 |
| COCCCn1c([C@@H]2CCCN(C(=O)[C@@H]3CN(S(=O)(=O)c4cc(C)ccc4OC)C[C@H]3N)C2)nc2ccccc21 [Compound 410, ((3R,4S)-4-amino-1-(2-methoxy-5-methylphenylsulfonyl)pyrrolidin-3-yl)((R)-3-(1-(3-methoxypropyl)-1H-benzo[d]imidazol-2-yl)piperidin-1-yl)methanone] | > 1 |
| COCCCn1c([C@@H]2CCCN(C(=O)[C@@H]3CN(S(=O)(=O)c4ccc([N+](=O)[O-])cc4OC)C[C@H]3N)C2)nc2ccccc21 [Compound 411, ((3R,4S)-4-amino-1-(2-methoxy-4-nitrophenylsulfonyl)pyrrolidin-3-yl)((R)-3-(1-(3-methoxypropyl)-1H-benzo[d]imidazol-2-yl)piperidin-1-yl)methanone] | > 1 |
| COCCCn1c([C@@H]2CCCN(C(=O)[C@@H]3CN(S(=O)(=O)c4cc(Cl)ccc4OC)C[C@H]3N)C2)nc2ccccc21 [Compound 412, ((3R,4S)-4-amino-1-(5-chloro-2-methoxyphenylsulfonyl)pyrrolidin-3-yl)((R)-3-(1-(3-methoxypropyl)-1H-benzo[d]imidazol-2-yl)piperidin-1-yl)methanone] | > 1 |
| COCCCn1c([C@@H]2CCCN(C(=O)[C@@H]3CN(S(=O)(=O)c4cc(OC)ccc4OC)C[C@H]3N)C2)nc2ccccc21 [Compound 413, ((3R,4S)-4-amino-1-(2,5-dimethoxyphenylsulfonyl)pyrrolidin-3-yl)((R)-3-(1-(3-methoxypropyl)-1H-benzo[d]imidazol-2-yl)piperidin-1-yl)methanone] | > 1 |
| COCCCn1c([C@@H]2CCCN(C(=O)[C@@H]3CN(C(=O)c4c(Cl)cccc4Cl)C[C@H]3N)C2)nc2ccccc21 [Compound 414, ((3R,4S)-4-amino-1-(2,6-dichlorobenzoyl)pyrrolidin-3-yl)((R)-3-(1-(3-methoxypropyl)-1H-benzo[d]imidazol-2-yl)piperidin-1-yl)methanone] | > 1 |
| COCCCn1c([C@@H]2CCCN(C(=O)[C@@H]3CN(C(=O)Nc4ccc(OC)cc4)C[C@H]3N)C2)nc2ccccc21 [Compound 415, (3S,4R)-3-amino-N-(4-methoxyphenyl)-4-((R)-3-(1-(3-methoxypropyl)-1H-benzo[d]imidazol-2-yl)piperidine-1-carbonyl)pyrrolidine-1-carboxamide] | > 1 |
| COCCCn1c([C@@H]2CCCN(C(=O)[C@@H]3CN(C(=O)c4ccc(Cl)cc4)C[C@H]3N)C2)nc2ccccc21 [Compound 416, ((3R,4S)-4-amino-1-(4-chlorobenzoyl)pyrrolidin-3-yl)((R)-3-(1-(3-methoxypropyl)-1H-benzo[d]imidazol-2-yl)piperidin-1-yl)methanone] | > 1 |
| COCCCn1c([C@@H]2CCCN(C(=O)[C@@H]3CN(C(=O)N4CCCC4)C[C@H]3N)C2)nc2ccccc21 [Compound 417, ((3R,4S)-4-amino-1-(pyrrolidine-1-carbonyl)pyrrolidin-3-yl)((R)-3-(1-(3-methoxypropyl)-1H-benzo[d]imidazol-2-yl)piperidin-1-yl)methanone] | > 1 |
| CCCSc1ncccc1C(=O)N1C[C@@H](N)[C@H](C(=O)N2CCC[C@@H](c3nc4ccccc4n3CCCOC)C2)C1 [Compound 418] | > 1 |
| COCCCn1c([C@@H]2CCCN(C(=O)[C@@H]3CN(S(=O)(=O)c4cccc(OC(F)F)c4)C[C@H]3N)C2)nc2ccccc21 [Compound 419, ((3R,4S)-4-amino-1-(3-(difluoromethoxy)phenylsulfonyl)pyrrolidin-3-yl)((R)-3-(1-(3-methoxypropyl)-1H-benzo[d]imidazol-2-yl)piperidin-1-yl)methanone] | > 1 |
| COCCCn1c([C@@H]2CCCN(C(=O)[C@@H]3CN(C(=O)c4ccco4)C[C@H]3N)C2)nc2ccccc21 [Compound 420, ((3R,4S)-4-amino-1-(furan-2-carbonyl)pyrrolidin-3-yl)((R)-3-(1-(3-methoxypropyl)-1H-benzo[d]imidazol-2-yl)piperidin-1-yl)methanone] | > 1 |
